For the experiment, the system named is CD8F1 mice, subcutaneous mammary adenocarcinoma, T/C%. Kind of experiment: NCI In Vivo Anticancer Drug Screen. Data for tumor model Mammary Adenocarcinoma CD8F1 (subcutaneous) in CD8F1. The following applies: higher = larger tumour. Put shortly:
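Mice carrying transplanted tumors received test compound, and survival or tumor size was recorded. Each value is the treated-group measurement divided by the corresponding measurement in vehicle-dosed controls.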

The mark [1] stands for this setting: endpoint: median tumor weight change, dose: 125.0 mg/kg/injection, schedule: Q01DX001 (ip), vehicle: saline.
Setting [2] is: endpoint: median tumor weight change, dose: 500.0 mg/kg/injection, schedule: Q01DX001 (ip), vehicle: saline.
Setting [3] is: endpoint: median tumor weight change, dose: 62.5 mg/kg/injection, schedule: Q01DX001 (ip), vehicle: saline.
[4] abbreviates: endpoint: median tumor weight change, dose: 250.0 mg/kg/injection, schedule: Q01DX001 (ip), vehicle: saline.
Where [5] appears, read: endpoint: median tumor weight (est.), dose: 25.0 mg/kg/injection, schedule: Q07DX005 (ip), vehicle: Klucel (hydroxypropylcellulose) (HPC).
The mark [6] stands for this setting: endpoint: median tumor weight (est.), dose: 50.0 mg/kg/injection, schedule: Q07DX005 (ip), vehicle: Klucel (hydroxypropylcellulose) (HPC).
[7] abbreviates: endpoint: median tumor weight (est.), dose: 100.0 mg/kg/injection, schedule: Q07DX005 (ip), vehicle: Klucel (hydroxypropylcellulose) (HPC).
The mark [8] stands for this setting: endpoint: median tumor weight (est.), dose: 200.0 mg/kg/injection, schedule: Q07DX005 (ip), vehicle: Klucel (hydroxypropylcellulose) (HPC).
Where [9] appears, read: endpoint: median tumor weight (est.), dose: 400.0 mg/kg/injection, schedule: Q07DX005 (ip), vehicle: Klucel (hydroxypropylcellulose) (HPC).
Setting [10] is: endpoint: median tumor weight (est.), dose: 12.5 mg/kg/injection, schedule: Q07DX005 (ip), vehicle: saline with Tween-80.
The mark [11] stands for this setting: endpoint: median tumor weight (est.), dose: 25.0 mg/kg/injection, schedule: Q07DX005 (ip), vehicle: saline with Tween-80.
Where [12] appears, read: endpoint: median tumor weight (est.), dose: 50.0 mg/kg/injection, schedule: Q07DX005 (ip), vehicle: saline with Tween-80.
[13] abbreviates: endpoint: median tumor weight (est.), dose: 100.0 mg/kg/injection, schedule: Q07DX005 (ip), vehicle: saline with Tween-80.
Setting [14] is: endpoint: median tumor weight (est.), dose: 200.0 mg/kg/injection, schedule: Q07DX005 (ip), vehicle: saline with Tween-80.
Where [15] appears, read: endpoint: median tumor weight (est.), dose: 25.0 mg/kg/injection, schedule: Q07DX005 (ip), vehicle: saline.
The mark [16] stands for this setting: endpoint: median tumor weight (est.), dose: 50.0 mg/kg/injection, schedule: Q07DX005 (ip), vehicle: saline.
Where [17] appears, read: endpoint: median tumor weight (est.), dose: 100.0 mg/kg/injection, schedule: Q07DX005 (ip), vehicle: saline.
Where [18] appears, read: endpoint: median tumor weight (est.), dose: 200.0 mg/kg/injection, schedule: Q07DX005 (ip), vehicle: saline.
[19] abbreviates: endpoint: median tumor weight (est.), dose: 400.0 mg/kg/injection, schedule: Q07DX005 (ip), vehicle: saline.

Data on 18 molecules can be found in PubChem BioAssay AID220 (DTP/NCI, 2004).

Several values for one entry are separate records, joined by “and”; a condition that tells them apart may be missing. Equal entries are not always repeated. Records with an inconclusive call do not appear.

Take `NC(CCC(=O)NC(CS)C(=O)NCC(=O)O)C(=O)O` (stereo not given): the T/C is 74 % of control under setting [1] and 82 % of control under setting [2].
Regarding `C1CNCOC1`, the T/C is 74 % of control (endpoint: median tumor weight change, dose: 50.0 mg/kg/injection, schedule: Q01DX001 (ip), vehicle: saline); 48 % of control under setting [3]; 82 % of control (endpoint: median tumor weight change, dose: 100.0 mg/kg/injection, schedule: Q01DX001 (ip), vehicle: saline); 90 % of control (endpoint: median tumor weight change, dose: 200.0 mg/kg/injection, schedule: Q01DX001 (ip), vehicle: saline); 96 % of control under setting [4].
`COC1C(CO)OC(n2cnc3c(=S)nc(N)[nH]c32)C1O` (stereo not given): the T/C is 109 % of control (endpoint: median tumor weight (est.), dose: 12.5 mg/kg/injection, schedule: Q07DX005 (ip), vehicle: Klucel (hydroxypropylcellulose) (HPC)); 116 % of control under setting [5]; 112 % of control under setting [6]; 79 % of control under setting [7]; 28 % of control under setting [8]; 22 % of control under setting [9].
For `CCOC(=O)c1ccc(NC(=O)Nc2nccs2)cc1`, the T/C is 150 % of control under setting [10]; 46 % of control under setting [11]; 60 % of control under setting [12]; 96 % of control under setting [13]; 49 % of control under setting [14]; 43 % of control (endpoint: median tumor weight (est.), dose: 400.0 mg/kg/injection, schedule: Q07DX005 (ip), vehicle: saline with Tween-80).
With `O=C1NC(=O)/C(=C/C=C/c2ccccc2)S1`, the T/C is 66 % of control under setting [10], 100 % of control under setting [11], 81 % of control under setting [13] and 101 % of control under setting [14].
For `NC(=O)c1ncn(C2OC(CO)C(O)C2O)c1O` (stereo not given), the T/C is, setting by setting: under setting [6], 85 % of control; under setting [7], 105 % of control; under setting [8], 72 % of control; under setting [9], 83 % of control.
`CCCCCCCCCCCCCC#CC(=O)O`: the T/C runs as follows: (endpoint: median tumor weight change, dose: 62.5 mg/kg/injection, schedule: Q01DX001 (ip), vehicle: saline with Tween-80) 75 % of control and 95 % of control; (endpoint: median tumor weight change, dose: 125.0 mg/kg/injection, schedule: Q01DX001 (ip), vehicle: saline with Tween-80) 68 % of control and 81 % of control; (endpoint: median tumor weight change, dose: 250.0 mg/kg/injection, schedule: Q01DX001 (ip), vehicle: saline with Tween-80) 72 % of control; (endpoint: median tumor weight change, dose: 500.0 mg/kg/injection, schedule: Q01DX001 (ip), vehicle: saline with Tween-80) 78 % of control.
Regarding `C=C1C(=O)OC2CC(C)C3C4OC4C(O)C3(C)C(O)C12` (stereo not given), the T/C was 119 % of control under setting [3], 80 % of control under setting [1], 74 % of control under setting [4] and 88 % of control under setting [2].
As for `C[n+]1ccc(Nc2ccc(NC(=O)c3ccc(Nc4cc[n+](C)c5ccc(N)cc45)cc3)cc2)cc1`, the T/C was 51 % of control and 65 % of control (endpoint: median tumor weight (est.), dose: 16.0 mg/kg/injection, schedule: Q07DX005 (ip), vehicle: Klucel (hydroxypropylcellulose) (HPC)); 24 % of control and 25 % of control (endpoint: median tumor weight (est.), dose: 32.0 mg/kg/injection, schedule: Q07DX005 (ip), vehicle: Klucel (hydroxypropylcellulose) (HPC)).
Take `N[C@H](C(=O)O)[C@@H]1CC(Cl)=NO1`: the T/C (endpoint: median tumor weight (est.), dose: 1.0 mg/kg/injection, schedule: Q07DX005 (ip), vehicle: saline) is 167 % of control; the T/C (endpoint: median tumor weight (est.), dose: 2.0 mg/kg/injection, schedule: Q07DX005 (ip), vehicle: saline) was 92 % of control and 100 % of control and 101 % of control; the T/C (endpoint: median tumor weight (est.), dose: 128.0 mg/kg/injection, schedule: Q07DX005 (ip), vehicle: saline) is 13 % of control.
Regarding `Nc1nc(N)c2c(ccc3c2ccn3Cc2cccc([N+](=O)[O-])c2)n1`, the T/C (endpoint: median tumor weight change, dose: 7.75 mg/kg/injection, schedule: Q01DX001 (ip), vehicle: saline with Tween-80) is 66 % of control; the T/C (endpoint: median tumor weight change, dose: 8.0 mg/kg/injection, schedule: Q01DX001 (ip), vehicle: saline with Tween-80) is 56 % of control; the T/C (endpoint: median tumor weight change, dose: 16.0 mg/kg/injection, schedule: Q01DX001 (ip), vehicle: saline with Tween-80) was 67 % of control.
As to `O=C(CO)c1ccc([N+](=O)[O-])cc1`, the T/C reads like this: (endpoint: median tumor weight (est.), dose: 6.25 mg/kg/injection, schedule: Q07DX005 (ip), vehicle: saline with Tween-80) 117 % of control; under setting [10], 112 % of control; under setting [11], 91 % of control; under setting [12], 118 % of control; under setting [14], 86 % of control.
Take `O=c1[nH]c(=O)n(C2CC(O)C(CO)O2)cc1F` (stereo not given): the T/C is 50 % of control (endpoint: mean tumor weight, dose: 25.0 mg/kg/injection, schedule: Q01DX009 (ip), vehicle: saline); 20 % of control (endpoint: mean tumor weight, dose: 50.0 mg/kg/injection, schedule: Q01DX009 (ip), vehicle: saline); 30 % of control (endpoint: mean tumor weight, dose: 100.0 mg/kg/injection, schedule: Q01DX009 (ip), vehicle: saline); 585 % of control (endpoint: mean tumor weight, dose: 125.0 mg/kg/injection, schedule: Q07DX005 (ip), vehicle: saline); 49 % of control (endpoint: mean tumor weight, dose: 125.0 mg/kg/injection, schedule: Q07DX006 (ip), vehicle: saline); 180 % of control (endpoint: mean tumor weight, dose: 250.0 mg/kg/injection, schedule: Q07DX005 (ip), vehicle: saline). For the same molecule, the T/C is, setting by setting: (endpoint: mean tumor weight, dose: 250.0 mg/kg/injection, schedule: Q07DX006 (ip), vehicle: saline) 6 % of control; (endpoint: mean tumor weight, dose: 500.0 mg/kg/injection, schedule: Q07DX005 (ip), vehicle: saline) 473 % of control; (endpoint: median tumor weight (est.), dose: 12.5 mg/kg/injection, schedule: Q07DX005 (ip), vehicle: saline) 97 % of control; under setting [15], 116 % of control; under setting [16], 72 % of control and 81 % of control; under setting [17], 62 % of control and 78 % of control. For the same molecule, the T/C was 27 % of control and 46 % of control under setting [18]; 5 % of control and 11 % of control under setting [19].
Turning to `Cl`, the T/C by setting is: under setting [15], 93 % of control; under setting [16], 91 % of control; under setting [17], 67 % of control; under setting [18], 93 % of control; under setting [19], 48 % of control.
In the case of `CC(=O)OCC(=O)[C@@]12OC(C)(C)O[C@@H]1C[C@H]1[C@@H]3CC(C=O)=C4C=C(OCCCl)CC[C@]4(C)[C@@]3(F)[C@@H](O)C[C@@]12C`, the T/C is 41 % of control and 62 % of control under setting [5]; 1 % of control and 16 % of control under setting [7]; 1 % of control and 7 % of control under setting [8]; 32 % of control (endpoint: median tumor weight change, dose: 62.0 mg/kg/injection, schedule: Q01DX001 (ip), vehicle: Klucel (hydroxypropylcellulose) (HPC)); 66 % of control (endpoint: median tumor weight change, dose: 62.5 mg/kg/injection, schedule: Q01DX001 (ip), vehicle: Klucel (hydroxypropylcellulose) (HPC)).
Regarding `CC(=O)OCC1OC([S-])C(OC(C)=O)C(OC(C)=O)C1OC(C)=O.CC[PH+](CC)CC.CC[PH+](CC)CC.[Au].[Au]` (stereo not given), the T/C runs as follows: (endpoint: median tumor weight change, dose: 6.25 mg/kg/injection, schedule: Q01DX001 (ip), vehicle: Klucel (hydroxypropylcellulose) (HPC)) 63 % of control; (endpoint: median tumor weight change, dose: 12.5 mg/kg/injection, schedule: Q01DX001 (ip), vehicle: Klucel (hydroxypropylcellulose) (HPC)) 109 % of control.
In the case of `COc1ccc2c(c1)CCn1c(C)c(COC(=O)NC(C)C)c(COC(=O)NC(C)C)c1-2`, the T/C (endpoint: median tumor weight change, dose: 15.62 mg/kg/injection, schedule: Q01DX001 (ip), vehicle: distilled water + Tween-80) was 107 % of control; the T/C (endpoint: median tumor weight change, dose: 31.0 mg/kg/injection, schedule: Q01DX001 (ip), vehicle: distilled water + Tween-80) was 106 % of control; the T/C (endpoint: median tumor weight change, dose: 31.25 mg/kg/injection, schedule: Q01DX001 (ip), vehicle: distilled water + Tween-80) was 109 % of control and 114 % of control; the T/C (endpoint: median tumor weight change, dose: 62.0 mg/kg/injection, schedule: Q01DX001 (ip), vehicle: distilled water + Tween-80) is 58 % of control; the T/C (endpoint: median tumor weight change, dose: 250.0 mg/kg/injection, schedule: Q01DX001 (ip), vehicle: distilled water + Tween-80) is 26 % of control.
For `O=Cc1ccc(O)c(O)c1`, where the note is “endpoint: median tumor weight (est.), dose: 100.0 mg/kg/injection, schedule: Q07DX005 (ip), vehicle: suspension in saline”, the T/C was 160 % of control.
